Data on eleven compounds can be found in patent publication US12194014B2, “Platinum-based amphiphile prodrugs” (NANOMED HOLDINGS PTY LTD, priority 2018, dated 2025).

Series [1] in a line: SAXS of neat and hydrated amphiphiles (phase, lattice parameter). The series is classed as physicochemical. The settings on record: for lattice parameter, hydrated / phase, hydrated: excess water. The protocol:
SAXS analyses of the bulk and lyotropic phases of the amphiphiles were performed on a Bruker NanoSTAR laboratory SAXS instrument (Brucker AXS, Kalsruhe, Germany).
(§1) The equilibrated lyotropic phases were placed into a demountable button sample cell. For the analysis of the dispersions, a multi-capillary holder was used. Button cells and capillary holder interchangeably fit into a block setup that was temperature-controlled with a Peltier heater-cooler system. 2D scattering images were radially averaged to conventional 1 D scattering plots and as a function of the q value (Å^−1) where q is the length of the scattering vector which was calculated using the formula q=(4π/λ) sin(θ/2), where λ is the wavelength and θ is the scattering angle.
(§2) Small angle X-ray scattering patterns of emulsions and liposomes display large broad peaks while liquid crystalline phases of highly ordered nanostructured particles such as cubosomes and hexosomes display distinct sharp peaks. The relative positions of the peaks (“spacing”) allows for the elucidation of the symmetry of the structure. The interplanar distance (d) between two reflecting planes may be calculated using the formula d=(2π)/q, where q is the absolute position of the peak. This, in turn allows for the calculation of the lattice parameter (a), the size of the unit cell, to be calculated.

A short description of series [2]: Mesophase behaviour by polarized optical microscopy (POM). The series is classed as physicochemical. The settings on record: for POM observation on exposure to water: 25° C. and 37° C.; for Appearance of the Lyotropic phase at excess water (25° C.-50° C.): POM, equilibration 1 h. The protocol:
Polarized Optical Microscopy (POM): Samples used for Polarized Optical Microscopy (POM) were prepared by placing a small amount of prodrug amphiphile on a microscope slide and covered with a cover slip. Water was placed on the edges of the cover slip and allowed to flow into the sample by capillary action. The microscope slide was placed in a Linkam PE94 hot stage (Linkam Scientific Instruments Ltd. Surrey, England) and heated at 3° C./min between room temperature and 50° C. […] Images were captured with a Nikon DS-Ri-1 camera. All images were taken at 100× magnification.
The formation of lyotropic mesophases is based on the interaction of the prodrug amphiphile with water. Polarized optical microscopy was used to study the liquid crystalline or crystalline structures of the prodrug amphiphiles. This method was used as a preliminary and qualitative investigation to observe the morphological changes of the amphiphile as well as to predict the structural changes of the mesophases which may form upon hydration with water. For each prodrug amphiphile, a small amount of the neat and dry sample was placed on a microscope slide and covered with a cover slip. Water was placed on the edges of the cover slip to allow to flow into the sample by capillary action. Images were captured at 25° C. before and after the addition of water and at 37° C. after exposure to water. 37° C. was selected due to its physiological relevance. […]

Series [3] is described as follows: SAXS / synchrotron SAXS of dispersed nanoparticles. Format: physicochemical. The settings on record: dispersion with PEG stabiliser. The protocol:
as §1, §2
The CP prodrug amphiphiles were hydrated with warm PBS containing 10-30% PEG4K-oleoyl or other steric stabilisers such F108 or F127 and sonicated in a sonicator bath and using a probe sonicator resulting in the lipid emulsion. The nanoparticles were then processed through a polycarbonate membrane (3×400 nm, 3×200 nm and 3×100 nm) using an extruder (Avestin, LipoFast LF-50) in order to ensure homogenous sizing. The CP prodrug-phospholipid/cholesterol nanoparticles were prepared by mixing the CP amphiphiles, DMPC and cholesterol in ethanol, followed by vigorous mixing and gentle evaporation under reduced pressure resulting in a thin film. The thin film was then hydrated with warm PBS containing 10-30% of PEG4K-oleoy solution, sonicated in a sonicator bath and using a probe sonicator resulting in the lipid emulsion. The nanoparticles were then processed through a polycarbonate membrane (3×400, 3×200 nm, 9×100 nm) using an extruder (Avestin, LipoFast LF-50) in order to ensure homogenous sizing between 20-200 nm.

A short description of series [4]: Reduction kinetics of Pt (IV) prodrug nanoparticles with ascorbic acid (LC-MS). The series is classed as in vitro ADME. The method, then: The reducing agent was applied at concentrations corresponding to those found in the living cells' environment, e.g. 1 mM ascorbic acid or 2 mM glutathione (GSH).
Dispersed nanoparticles of Pt (IV) prodrug amphiphiles were mixed with GSH, ascorbic acid or their combination. The ratios of the reducing agents to platinum prodrugs were 10:1 or 50:1 for ascorbic acid and 20:1 for GSH. The reduction kinetics was analysed by LC-MS via monitoring the peaks related to each prodrug amphiphile. The prodrugs were detected by negative ions optimised for each platinum amphiphile. The reduction kinetics was plotted as the percentage of the area under the peak of Pt (IV)-prodrug compared to the peak before the addition of the reducing agent against the time of incubation. At each time point 10 μl of a sample withdrawn from the reaction solution was injected directly into a Phenomenex C8 150 mm×2 mm 5 μm Luna column (Phenomenex, Australia). A 100% Methanol solution was used as the mobile phase with a flow rate of 0.5 ml/min for 8 minutes. The sample after the column separation was eluted to the ESI source. […] The samples were well maintained at a temperature of 37° C. during the entire measurement by incubation in the temperature-controlled auto-sampler. Data was acquired and processed with Xcalibur Quan chromatography software.

For the compound `CC(C)CCCC(C)CCCC(C)CCCC(C)CC(=O)[O][Pt]([NH2])([NH2])([Cl])([Cl])[O]C(=O)CC(C)CCCC(C)CCCC(C)CCCC(C)C` (mixture of isomers) [CP-bis (phytanoyl), cis,cis,trans-[PtCl2(NH3)2(phytanoyl)2]], in series [1] (25° C.), the “lattice parameter, neat non-hydrated” value was found to be 37.3 ± 0.5 Å; the “phase, neat non-hydrated” value was “LC1”; the “lattice parameter, hydrated” value amounted to 37.3 ± 0.5 Å; the “phase, hydrated” value is listed as “LC1”. Further, in series [1] (37° C.), the “lattice parameter, neat non-hydrated” value was 37.3 ± 0.5 Å; the “phase, neat non-hydrated” value is “LC1”; the “lattice parameter, hydrated” value is on record as 39.8 ± 0.5 Å; the “phase, hydrated” value is listed as “LC1”. In addition, in series [2], the “POM observation on exposure to water” value is reported as “amenable to swelling to some extent” and the “Appearance of the Lyotropic phase at excess water (25° C.-50° C.)” value (“Appearance of the Lyotropic phase” below) is “No distinct mesophases”.
`CCCCCCCC/C=C\CCCCCCCC(=O)OCCOCCOCCOC(=O)[O][Pt]([NH2])([NH2])([Cl])([Cl])[O]C(=O)OCCOCCOCCOC(=O)CCCCCCC/C=C\CCCCCCCC` [CP-bis (PEG3-oleoyl), cis,cis,trans-(PtCl2(-triethyleneglycolyl-oleoyl)2)]: in series [1] (25° C.), the “lattice parameter, hydrated” value is given as 43.93 ± 0.5 Å. The “lattice parameter, neat non-hydrated” value in series [1] (temperature not given) was determined as 40.80 ± 0.5 Å. In addition, in series [3], the “lattice parameter of dispersed nanoparticles” value was 44.28±0.5 Å and the “structure of dispersed nanoparticles” value is “lamellar dispersed nanoparticle”. In series [2], the “POM observation on exposure to water” value was “formation of a lamellar liquid crystalline structures”.
As to `CCCCCCCCCCCC(=O)[O][Pt]([Cl])([Cl])[O]C(=O)CCCCCCCCCCC.N.N` [CP-bis (lauroyl), cis,cis,trans-[PtCl2(NH3)2(lauroyl)2]], the “POM observation on exposure to water” value in series [2] is “no observable difference after hydration with water at either 25 or 37 °C”.
Regarding `CCCCC/C=C\C/C=C\CCCCCCCC(=O)[O][Pt]([Cl])([Cl])[O]C(=O)CCCCCCC/C=C\C/C=C\CCCCC.N.N` [CP-bis (linoleoyl), cis,cis,trans-[PtCl2(NH3)2(linoleoyl)2]], in series [1] (temperature not given), the “lattice parameter, hydrated” value was found to be 33.5 ± 0.5 Å; the “phase, hydrated” value is given as “LC1”; the “lattice parameter, neat non-hydrated” value turned out to be 33.5 ± 0.5 Å; the “phase, neat non-hydrated” value is on record as “LC1”. Also, in series [2], the “POM observation on exposure to water” value is on record as “amenable to swelling to some extent” and the “Appearance of the Lyotropic phase” value is “No distinct mesophases”.
`CCCCCCCCCCCCCC(=O)[O][Pt]([Cl])([Cl])[O]C(=O)CCCCCCCCCCCCC.N.N` [CP-bis (myristoyl), cis,cis,trans-[PtCl2(NH3)2(myristoyl)2]]: in series [2], the “POM observation on exposure to water” value is “amenable to swelling to some extent”.
As for `CCCCCCCC/C=C\CCCCCCCC(=O)[O][Pt]([NH2])([NH2])([Cl])([Cl])[O]C(=O)CCCCCCC/C=C\CCCCCCCC` [CP-bis (oleoyl), cis,cis,trans-[PtCl2(NH3)2(oleoyl)2]], in series [1] (temperature not given), the “lattice parameter, hydrated” value was 34.2 ± 0.5 Å; the “phase, hydrated” value is given as “LC1”; the “lattice parameter, neat non-hydrated” value stood at 34.2 ± 0.5 Å; the “phase, neat non-hydrated” value is “LC1”. For the same compound, in series [2], the “POM observation on exposure to water” value is listed as “amenable to swelling to some extent” and the “Appearance of the Lyotropic phase” value is reported as “No distinct mesophases”.
As to `CCCCCCCCCCCCCCCC(=O)[O][Pt]([Cl])([Cl])[O]C(=O)CCCCCCCCCCCCCCC.N.N` [CP-bis (palmitoyl), cis,cis,trans-[PtCl2(NH3)2(palmitoyl)2]], in series [2], the “POM observation on exposure to water” value is “amenable to swelling to some extent”.
Turning to `CCCCCCCC/C=C\CCCCCCCC(=O)OCCOCCOCCNC(=O)CCC(=O)[O][Pt]([NH2])([NH2])([Cl])([Cl])[O]C(=O)CCC(=O)NCCOCCOCCOC(=O)CCCCCCC/C=C\CCCCCCCC` [CP-bis(suc-amino-PEG3-oleoyl), cis,cis,trans-(PtCl2(NH3)2-(succinoyl-triethylene glycolyl-oleoyl)2)], the “lattice parameter, hydrated” value in series [1] (25° C.) is given as 46.54 ± 0.5 Å. The “lattice parameter, hydrated” value in series [1] (37° C.) worked out at 46.33 ± 0.5 Å. Also, the “lattice parameter, neat non-hydrated” value in series [1] (temperature not given) amounted to 46.20 ± 0.5 Å. In series [3], the “lattice parameter of dispersed nanoparticles” value worked out at 47.62±0.5 Å and the “structure of dispersed nanoparticles” value is given as “multilamellar dispersed nanoparticle”.
Regarding `CCCCCCCCCCCCCC(=O)[O][Pt]1([NH2])([NH2])([O]C(=O)CCCCCCCCCCCCC)[O]C(=O)C2(CCC2)C(=O)[O]1` [Carboplatin-bis (myristoyl), cis, trans [(Diamine) (1,1-cyclobutanedicarboxylato) (bis myristoyl)]], the maximum reduction in series [4] (ascorbic acid as reducing agent, up to 24 h) was 80%. Further, the “Appearance of the Lyotropic phase” value in series [2] is “No distinct mesophase”.
Turning to `CCCCCCCCCCCCCC(=O)OCCOCCOCCNC(=O)CCC(=O)[O][Pt]1([O]C(=O)CCC(=O)NCCOCCOCCOC(=O)CCCCCCCCCCCCC)[O]C(=O)C2(CCC2)C(=O)[O]1.N.N` [Carboplatin-bis (suc-PEG3-myristoyl), cis, [Pt (Diamine) (1,1-cyclobutanedicarboxylato) (succinylamide-triethyleneglycol-myristoyl)2]], in series [2], the “Appearance of the Lyotropic phase” value is “Lamellar”.
Regarding “cis, trans [Oxaliplatin-bis (myristoyl), cis, trans [Pt ((1R, 2R)-1,2 cyclohexanediamine-N,N′) (oxalate(2-)O,O′) (myristoyl)2]]”, in series [4] (1 mM ascorbic acid, 0.1 mM prodrug in DMPC/cholesterol nanoparticles), the “reduction rate compared with carboplatin prodrug” value is “higher rate up to 3 h compared with carboplatin prodrug”.
